How the values were obtained:
Assay type in all cases: cell-based, human
[1] = tested on: MUTYH-deficient (ΔMUTYH) cells; assay: Survival of MUTYH-deficient cells after UV irradiation; conditions: pre-incubation with 0.5 mM acetohexamide; 3 days (FIG. 3B)
Description: FIG. 3. Loss of MUTYH mimics acetohexamide function A. Bubble plot displaying the percentage of rescue, defined as the difference in survival of a given cell line treated with acetohexamide compared to untreated, following UV irradiation. The light grey, dark grey bubbles highlight ΔMUTYH, ΔXPA […], and black bubbles indicate the rest of the knockout cell lines and WT HAP1. The size of the bubbles indicates the significance as log10 (p-value). BER: base excision repair; NER: nucleotide excision repair; DSBR; double-strand break repair; MMR: mis-match repair; FA: Fanconi aneamia; DR; direct reversal; TLS; translesion synthesis. B. Survival of WT and MUTYH-deficient (ΔMUTYH) cells with or without 0.5 mM acetohexamide treatment, followed by UV irradiation, as assessed after 3 days using CellTitre-Glo. Loss of MUTYH protein was confirmed by immunoblotting using an anti-MUTYH antibody. ACTIN was used as a loading control. C. Deletion of MUTYH in WT HAP1 or an XPA-deficient background was confirmed by immunoblotting using an anti-MUTYH antibody. TUBULIN was used as a loading control. […]
For UV irradiation, cells were washed with PBS, trypsinized, counted and distributed in equal number then irradiated with different doses of UV as indicated. […] After 72 hours, survival was measured using Cell Titer-Glo (Promega). […]

WT and ΔXPA cells = assay: Survival after illudin S treatment; conditions: 0.5 mM acetohexamide for 6 hours, then illudin S (FIG. 2A, 7B)
Experimental: (§1) A. Dose-response curve of WT and ΔXPA cells treated with or without 0.5 mM acetohexamide for 6 hours, followed by illudin S treatment. Survival was assessed after 3 days using CellTiter-Glo. B. Colony formation of WT fibroblasts (BJ) and XPA-patient derived fibroblasts (XPA^Δ/Δ) treated with or without 0.5 mM acetohexamide for 6 hours, followed by UV irradiation (as indicated) and then kept in culture for 10 days. C. WT BJ and XPA^Δ/Δ fibroblastoid cells were treated with 0.5 mM acetohexamide for 6 hours, irradiated with 15 J/M^2 and then fixed and immunostained with an anti-cyclobutane pyrimidine dimer (CPD) antibody at the indicated times. Nuclear DNA was counterstained with DAPI. Scale bar, 10 μm. D. Scatter plot displaying the quantification of CPD intensities per nucleus of WT and XPA^Δ/Δ cells in the presence or absence of 0.5 mM acetohexamide, of more than 100 cells. Red lines within each column represent median intensities. A.u.=arbitrary unit.
A. Dose-response curve of WT and ΔXPA cells treated with or without 0.5 mM acetohexamide for the indicated times, followed by UV irradiation. Survival was assessed after 3 days, using CellTiter-Glo. […] WT and ΔXPA cells treated with or without 0.5 mM acetohexamide for the indicated times, followed by 15 J/M^2 irradiation and analyzed by dot blot for the presence of CPDs in genomic DNA. […] D. Quantification of the intensities of C. […]

ΔXPA cells = assay: Long-term colony formation assay after UV irradiation; conditions: 0.5 mM acetohexamide for 6 hours, then UV; 10 days in culture (FIG. 1E)
Description: A. Schematic representation of the experimental setup used to perform the high-throughput drug screen, where drugs were used at five-times maximal plasma concentration (CLOUD; CeMM library of unique drugs). B. Bubble plot displaying the drugs used plotted against cell viability. Light grey bubbles indicate wildtype (WT) cells, dark grey bubbles indicate XPA-deficient cells (ΔXPA). […] C. Chemical structure of acetohexamide. D. Dose-response curve of WT and ΔXPA cells treated with or without 0.5 mM acetohexamide for 6 hours, followed by UV irradiation. Survival was assessed after 3 days, using CellTiter-Glo. […] Error bars indicate SEM (n=3). E. Colony formation using the same conditions indicated in (D), where cells were kept in culture for 10 days following UV irradiation, following which they were fixed and stained.
Cells were treated with UV at different doses with or without drug pre-treatment and then seeded into 6-well plates, at a density of 1,000 cells/well, in duplicates for 2 weeks until visible colonies were formed. Then, the medium was removed, colonies were washed with PBS and fixed using 3.7% paraformaldehyde (PFA) for 1 hour. Subsequently, the PFA was removed and colonies were stained with 0.1% crystal violet in 5% ethanol solution for 1 hour. Next, the staining solution was removed and the wells were washed, imaged and quantified using CellProfiler.

[2] = tested on: XPA^Δ/Δ patient-derived cells; assay: Colony formation of XPA patient-derived fibroblasts after UV irradiation; conditions: 0.5 mM acetohexamide for 6 hours, then UV; 10 days (FIG. 2B)
Experimental: as §1
HAP1 cells were cultured in Iscove's Modified Dulbecco's Medium (Gibco). […]
Cells were treated with UV at different doses with or without drug pre-treatment and then seeded into 6-well plates, at a density of 1,000 cells/well, in duplicates for 2 weeks until visible colonies were formed. […] Next, the staining solution was removed and the wells were washed, imaged and quantified using CellProfiler.

## CC(=O)c1ccc(S(=O)(=O)NC(=O)NC2CCCCC2)cc1 [acetohexamide]
[1]
  survival of ΔMUTYH cells after UV: did not have a noticeable effect on survival
WT and ΔXPA cells
  cellular survival following illudin S treatment: could increase cellular survival following illudin S treatment
ΔXPA cells
  UV sensitivity of ΔXPA cells, long-term colony formation assay: alleviated the UV sensitivity of ΔXPA cells almost to the level of wildtype cells
[2]
  UV-induced cell death of XPA^Δ/Δ patient-derived cells: could alleviate UV-induced cell death of XPA^Δ/Δ patient-derived cells

— patent US20200171056A1, “SULFONYLUREA COMPOUNDS IN THE TREATMENT OF DISEASE ASSOCIATED WITH UV-INDUCED DAMAGE” (CeMM - Forschungszentrum für Molekulare Medizin GmbH, priority 2017, published 2020)
